From ChEMBL document CHEMBL1201862, “PubChem BioAssay data set” (2004)
The source made the active and inactive calls.

Experiments:
[1] = Trypanosoma cruzi growth suppression in host cells – NIH3T3 host cells, beta-gal luminescence, confirmation (AID 2044); assay type: functional, cell-based;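 note: intracellular parasites grown in NIH/3T3 mouse fibroblasts as host cells; luminescent beta-galactosidase reporter signal from transgenic T. cruzi replicating inside host cells; inhibitors lower the luminescence signal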
[2] = NIH3T3 cell viability loss – ATP luminescence, mouse fibroblasts, counter-screen, dose response (AID 2010); assay type: functional, cell-based;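 note: cells exposed to compound for about 90 hours before reading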
Bcl-2-related protein A1 = target: T1, Bcl-2-related protein A1 (Mus musculus, UniProt Q07440); assay type: functional;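 note: confirmatory dose–response counterscreen on Bfl-1, used to check hits from a UBC13 polyubiquitin inhibitor campaign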
T1 sequence (Q07440 whole entry): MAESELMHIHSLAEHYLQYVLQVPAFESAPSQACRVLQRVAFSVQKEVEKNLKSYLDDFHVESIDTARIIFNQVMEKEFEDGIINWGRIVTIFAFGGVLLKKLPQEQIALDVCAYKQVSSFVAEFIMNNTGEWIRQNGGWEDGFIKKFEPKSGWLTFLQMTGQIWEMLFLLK

[3] = target: T2, Ubiquitin-conjugating enzyme E2 N (Homo sapiens, UniProt P61088); assay type: functional
T2 sequence (P61088 whole entry): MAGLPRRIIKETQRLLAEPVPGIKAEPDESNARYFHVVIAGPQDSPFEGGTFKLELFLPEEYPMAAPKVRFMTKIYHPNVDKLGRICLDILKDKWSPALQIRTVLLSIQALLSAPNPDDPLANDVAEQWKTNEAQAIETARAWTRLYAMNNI

[4] = target: T2, Ubiquitin-conjugating enzyme E2 N; assay type: functional; remark: listed apart in the source
[5] = target: T3, Heat shock factor protein 1 (Mus musculus, UniProt P38532); assay: enhancement of HSF1-driven luciferase signal – cell-based, NIH3T3, luminescence, dose retest, confirmation (AID 435004); assay type: functional;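 note: stress induced by proteasome inhibitor MG132 added 30 min after compound; luciferase reporter driven by HSF1 response element in NIH3T3 cells; actives raise luminescence as potentiators of the MG132 stress response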
T3 sequence (P38532 whole entry): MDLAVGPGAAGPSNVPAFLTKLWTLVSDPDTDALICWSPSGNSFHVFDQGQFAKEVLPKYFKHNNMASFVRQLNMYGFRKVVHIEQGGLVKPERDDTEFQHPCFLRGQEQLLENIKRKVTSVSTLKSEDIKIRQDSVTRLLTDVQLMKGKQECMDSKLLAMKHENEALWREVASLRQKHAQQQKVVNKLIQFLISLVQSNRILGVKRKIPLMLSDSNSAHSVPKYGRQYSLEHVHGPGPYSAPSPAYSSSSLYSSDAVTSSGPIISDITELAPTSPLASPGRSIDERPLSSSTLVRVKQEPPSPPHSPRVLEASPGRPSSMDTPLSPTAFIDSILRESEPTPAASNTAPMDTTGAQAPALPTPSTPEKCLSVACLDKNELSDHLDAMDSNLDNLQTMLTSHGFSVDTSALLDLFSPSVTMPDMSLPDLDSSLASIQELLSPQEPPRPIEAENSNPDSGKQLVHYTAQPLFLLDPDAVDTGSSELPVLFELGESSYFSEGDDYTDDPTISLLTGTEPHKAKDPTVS

[6] = target: Ras and Rab interactor 1/Tyrosine-protein kinase ABL1 (Homo sapiens, UniProt P00519+Q13671); assay type: functional;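 note: biochemical TR-FRET dose-response test measuring inhibition of binding between Rin1 and Abl proteins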
Sequence of Ras and Rab interactor 1/Tyrosine-protein kinase ABL1 (P00519 whole entry): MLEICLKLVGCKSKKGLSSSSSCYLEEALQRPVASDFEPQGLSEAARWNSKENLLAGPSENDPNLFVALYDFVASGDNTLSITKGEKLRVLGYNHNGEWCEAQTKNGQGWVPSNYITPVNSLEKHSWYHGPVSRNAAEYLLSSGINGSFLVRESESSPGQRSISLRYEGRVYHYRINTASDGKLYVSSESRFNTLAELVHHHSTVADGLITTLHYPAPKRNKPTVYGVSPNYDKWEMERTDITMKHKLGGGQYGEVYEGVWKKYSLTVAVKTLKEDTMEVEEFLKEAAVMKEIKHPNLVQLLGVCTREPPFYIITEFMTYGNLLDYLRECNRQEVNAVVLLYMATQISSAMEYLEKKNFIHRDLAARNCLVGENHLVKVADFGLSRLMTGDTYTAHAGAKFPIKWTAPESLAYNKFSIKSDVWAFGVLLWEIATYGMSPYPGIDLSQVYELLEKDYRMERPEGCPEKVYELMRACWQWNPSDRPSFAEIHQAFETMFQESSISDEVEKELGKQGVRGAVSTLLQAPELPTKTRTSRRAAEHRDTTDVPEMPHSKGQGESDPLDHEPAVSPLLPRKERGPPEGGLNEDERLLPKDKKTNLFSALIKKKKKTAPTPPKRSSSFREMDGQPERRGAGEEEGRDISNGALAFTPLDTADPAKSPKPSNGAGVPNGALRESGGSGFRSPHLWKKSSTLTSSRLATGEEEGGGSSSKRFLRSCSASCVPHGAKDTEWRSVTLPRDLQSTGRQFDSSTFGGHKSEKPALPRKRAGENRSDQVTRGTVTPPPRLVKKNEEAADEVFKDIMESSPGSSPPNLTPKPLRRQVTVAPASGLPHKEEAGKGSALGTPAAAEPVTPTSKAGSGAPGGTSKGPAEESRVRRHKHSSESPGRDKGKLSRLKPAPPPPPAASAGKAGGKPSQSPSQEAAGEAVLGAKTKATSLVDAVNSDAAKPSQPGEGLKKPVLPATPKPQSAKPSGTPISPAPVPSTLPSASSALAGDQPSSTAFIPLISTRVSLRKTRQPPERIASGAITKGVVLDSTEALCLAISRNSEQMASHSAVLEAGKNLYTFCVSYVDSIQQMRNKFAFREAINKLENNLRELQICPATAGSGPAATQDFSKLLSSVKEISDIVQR
Sequence of Ras and Rab interactor 1/Tyrosine-protein kinase ABL1 (Q13671 whole entry): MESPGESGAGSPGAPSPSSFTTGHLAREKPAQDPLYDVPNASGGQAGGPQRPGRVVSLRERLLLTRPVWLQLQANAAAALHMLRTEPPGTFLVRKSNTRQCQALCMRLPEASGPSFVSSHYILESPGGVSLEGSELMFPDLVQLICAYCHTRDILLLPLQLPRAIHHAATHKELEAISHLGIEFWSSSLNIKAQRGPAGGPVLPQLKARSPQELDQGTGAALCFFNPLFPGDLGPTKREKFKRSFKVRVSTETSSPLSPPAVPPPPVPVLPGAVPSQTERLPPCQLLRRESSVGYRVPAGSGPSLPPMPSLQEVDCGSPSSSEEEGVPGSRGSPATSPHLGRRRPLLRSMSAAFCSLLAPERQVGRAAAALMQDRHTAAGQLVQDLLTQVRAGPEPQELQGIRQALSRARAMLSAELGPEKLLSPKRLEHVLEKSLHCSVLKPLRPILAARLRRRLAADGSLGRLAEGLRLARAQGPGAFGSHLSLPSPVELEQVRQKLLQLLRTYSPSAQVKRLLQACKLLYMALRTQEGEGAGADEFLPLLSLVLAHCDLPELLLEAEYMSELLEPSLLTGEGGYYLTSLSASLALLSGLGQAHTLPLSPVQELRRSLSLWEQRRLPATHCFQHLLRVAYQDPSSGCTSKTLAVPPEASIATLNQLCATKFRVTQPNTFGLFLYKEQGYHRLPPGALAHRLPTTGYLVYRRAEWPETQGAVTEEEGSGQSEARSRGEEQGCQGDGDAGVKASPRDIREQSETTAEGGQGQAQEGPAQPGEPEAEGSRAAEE

[7] = intracellular Trypanosoma cruzi inhibitors in host cells – cell-based, plate reader, cherry-pick samples, set 3, dose response (AID 651818); assay type: functional;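 note: compounds incubated with infected cells for about four days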
[8] = viability of uninfected HEp-2 cells – cell-based, HTS, cytotoxicity control for RSV inhibitor project, dose response (AID 2410); assay type: functional; settings: human respiratory syncytial virus
Vero [9] = assay: cells; assay type: functional, cell-based; settings: Chlorocebus sabaeus
Vero [10] = assay: cells; assay type: functional; settings: Chlorocebus sabaeus
BJ [11] = assay: BJ-TERT fibroblast viability loss – cell-based, RAS-independent, luminescence, dose response (AID 1933); assay type: functional; settings: Homo sapiens
BJ [12] = assay: cells; assay type: functional, cell-based; settings: Homo sapiens
BJ [13] = assay: BJ-TERT-LT-ST fibroblast viability loss – cell-based, RAS-independent, luminescence, dose response (AID 1935); assay type: functional; settings: Homo sapiens;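 note: BJ fibroblasts immortalized with TERT plus LT and ST oncogenes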
[14] = DRD fibroblast viability loss – cell-based, non-viral oncogenic, luminescence, dose response (AID 1934); assay type: functional; settings: Homo sapiens
BJ [15] = assay: growth inhibition of engineered Ras-driven BJ cells – cell-based, alamar blue fluorescence, cherrypicked samples, dose response (AID 2631); assay type: functional; settings: Homo sapiens;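 note: confirmatory dose-response assay in RAS-dependent BJ fibroblasts engineered with TERT, LT and ST, with cytotoxicity read by fluorescence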
[16] = target: T4, Replicative DNA helicase DnaB (Mycobacterium tuberculosis, UniProt P9WMR3); assay: DnaB intein splicing inhibitors, dose response, biochemical, cell-free fluorescence (AID 449749); assay type: functional
T4 sequence (P9WMR3 whole entry): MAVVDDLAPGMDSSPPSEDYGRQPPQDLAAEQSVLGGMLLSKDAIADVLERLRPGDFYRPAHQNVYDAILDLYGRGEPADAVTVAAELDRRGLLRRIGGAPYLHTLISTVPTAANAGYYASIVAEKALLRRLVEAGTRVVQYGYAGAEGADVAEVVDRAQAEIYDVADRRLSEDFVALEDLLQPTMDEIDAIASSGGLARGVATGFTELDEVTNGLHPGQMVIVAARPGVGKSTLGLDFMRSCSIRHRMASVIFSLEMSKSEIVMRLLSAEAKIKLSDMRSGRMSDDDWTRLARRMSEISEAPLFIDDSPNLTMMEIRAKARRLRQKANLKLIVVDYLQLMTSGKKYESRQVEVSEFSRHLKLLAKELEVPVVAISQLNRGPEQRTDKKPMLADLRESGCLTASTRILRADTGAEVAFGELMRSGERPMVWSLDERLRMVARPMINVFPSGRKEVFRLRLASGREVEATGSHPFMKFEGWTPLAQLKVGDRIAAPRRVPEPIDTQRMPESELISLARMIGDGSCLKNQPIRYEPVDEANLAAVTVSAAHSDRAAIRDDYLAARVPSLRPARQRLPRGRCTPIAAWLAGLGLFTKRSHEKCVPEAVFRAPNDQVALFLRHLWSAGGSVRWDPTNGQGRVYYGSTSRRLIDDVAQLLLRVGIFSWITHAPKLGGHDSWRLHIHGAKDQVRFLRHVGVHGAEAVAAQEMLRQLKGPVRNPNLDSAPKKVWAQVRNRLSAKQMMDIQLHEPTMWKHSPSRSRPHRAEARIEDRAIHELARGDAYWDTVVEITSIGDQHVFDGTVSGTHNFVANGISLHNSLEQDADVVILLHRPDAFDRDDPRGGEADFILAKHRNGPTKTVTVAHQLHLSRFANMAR

Protein RecA = target: T5, Protein RecA (Mycobacterium tuberculosis, UniProt P9WHJ3); assay: Fluorescence Cell-Free Homogeneous Dose Retest to Identify Inhibitors of RecA-Intein Splicing Activity. [Related pubchem assays (depositor defined):AID2097, AID2223, AID489010, AID492950]; assay type: functional
T5 sequence (P9WHJ3 whole entry): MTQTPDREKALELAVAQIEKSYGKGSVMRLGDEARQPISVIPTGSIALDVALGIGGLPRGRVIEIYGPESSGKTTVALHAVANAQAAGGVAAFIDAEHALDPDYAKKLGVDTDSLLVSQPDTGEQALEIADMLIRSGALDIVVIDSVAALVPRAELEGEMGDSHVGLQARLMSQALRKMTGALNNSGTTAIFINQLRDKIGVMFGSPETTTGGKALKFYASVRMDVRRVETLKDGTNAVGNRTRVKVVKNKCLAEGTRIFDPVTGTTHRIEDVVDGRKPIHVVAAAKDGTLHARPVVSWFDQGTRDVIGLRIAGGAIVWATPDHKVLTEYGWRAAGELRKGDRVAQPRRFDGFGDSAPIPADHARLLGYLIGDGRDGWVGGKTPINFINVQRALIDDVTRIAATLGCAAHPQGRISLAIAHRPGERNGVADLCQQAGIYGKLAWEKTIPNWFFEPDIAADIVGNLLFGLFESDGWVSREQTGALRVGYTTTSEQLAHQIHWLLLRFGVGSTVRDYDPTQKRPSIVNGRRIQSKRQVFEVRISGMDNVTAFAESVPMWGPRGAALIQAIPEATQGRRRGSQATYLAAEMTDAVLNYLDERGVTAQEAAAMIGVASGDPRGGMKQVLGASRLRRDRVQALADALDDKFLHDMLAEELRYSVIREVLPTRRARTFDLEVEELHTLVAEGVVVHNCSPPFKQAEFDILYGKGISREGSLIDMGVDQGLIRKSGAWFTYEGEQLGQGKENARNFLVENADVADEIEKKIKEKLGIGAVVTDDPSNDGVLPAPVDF

With `Cc1cccc(NC(=S)N=Nc2c(O)[nH]c3ccccc23)c1` the EC50 [1] was 1.53 µM (active), the EC50 [2] was 4.49 µM (active) and the IC50 (Bcl-2-related protein A1) was > 20 µM (inactive). The IC50 [3] was 15 µM (active), the IC50 [4] was 0.594 µM (active) and the EC50 [5] was 8.45 µM (active).

For `Cc1ccc(C(=O)N2CC(C)CC(C)C2)cc1NC1=NC2CS(=O)(=O)CC2S1` (stereo not given), the IC50 [6] was 14.3 µM (inactive).

For `O=C(Cc1ccc(NC(=O)C2CCN(C(=O)c3ccccc3)CC2)cc1)Nc1ccc(C(=O)N2CCOCC2)cc1`, the IC50 [6] was 6.48 µM (active).

In the case of `C[C@H](CO)N1C[C@H](C)[C@@H](CN(C)Cc2ccc(C(=O)Nc3ccccc3N)cc2)Oc2c(NC(=O)c3nc4ccccc4s3)cccc2C1=O`, the AC50 [7] is reported as 1.6 µM (active).

In the case of `Cc1cccc(-n2c(C)cc(/C=N\NC(=O)c3cccs3)c2C)c1`, the CC50 [8] is reported as 23.4 µM (active), the IC50 (Vero [9]) is reported as 14.7 µM (active) and the CC50 (Vero [10]) is reported as > 25 µM (active).

For `C[C@@H]1CCCCO[C@@H](CN(C)C(=O)Nc2ccc(C(F)(F)F)cc2)[C@@H](C)CN([C@H](C)CO)C(=O)c2cc(NC(=O)Cc3ccccc3)ccc2O1`, the AC50 [7] was 4.33 µM (active).

With `CCCCSc1cc(O)nc(N)n1` the IC50 [6] was 22.2 µM (inactive).

With `COc1cc(NC(=O)c2cccs2)c(OC)cc1NC(=O)CCC(=O)Nc1ccc2ncccc2c1` the EC50 (BJ [11]) was > 150 µM (not active), the EC50 (BJ [12]) was 8.14 µM (active) and the EC50 (BJ [13]) was > 150 µM (not active). For the same compound, the EC50 [14] was > 150 µM (not active) and the EC50 (BJ [15]) was 4.28 µM (inconclusive).

In the case of `C[C@H](CO)N1C[C@H](C)[C@H](CN(C)S(=O)(=O)c2cccs2)Oc2c(NC(=O)Nc3ccc(C(F)(F)F)cc3)cccc2C1=O`, the AC50 [7] is reported as 4.19 µM (active).

With `COc1ccc(C2CC(c3cccs3)=NN2C(=O)CCl)cc1OC` (stereo not given) the EC50 (BJ [11]) was 0.834 µM (active), the EC50 (BJ [12]) was 6.92 µM (active) and the EC50 [1] was 2.21 µM (active). For the same compound, the EC50 [2] was 2.64 µM (active), the EC50 (BJ [13]) was 6.05 µM (inconclusive) and the EC50 [14] was 5.26 µM (inconclusive). For the same compound, the AC50 [16] was 8.43 µM (active), the IC50 (Vero [9]) was > 25 µM (active) and the EC50 (Protein RecA) was 1.41 µM (active). For the same compound, the CC50 (Vero [10]) was 3.51 µM (active).
